Test [1] addresses T1, Muscarinic acetylcholine receptor M5 (Rattus norvegicus) (UniProt P08911).
T1 sequence (whole entry): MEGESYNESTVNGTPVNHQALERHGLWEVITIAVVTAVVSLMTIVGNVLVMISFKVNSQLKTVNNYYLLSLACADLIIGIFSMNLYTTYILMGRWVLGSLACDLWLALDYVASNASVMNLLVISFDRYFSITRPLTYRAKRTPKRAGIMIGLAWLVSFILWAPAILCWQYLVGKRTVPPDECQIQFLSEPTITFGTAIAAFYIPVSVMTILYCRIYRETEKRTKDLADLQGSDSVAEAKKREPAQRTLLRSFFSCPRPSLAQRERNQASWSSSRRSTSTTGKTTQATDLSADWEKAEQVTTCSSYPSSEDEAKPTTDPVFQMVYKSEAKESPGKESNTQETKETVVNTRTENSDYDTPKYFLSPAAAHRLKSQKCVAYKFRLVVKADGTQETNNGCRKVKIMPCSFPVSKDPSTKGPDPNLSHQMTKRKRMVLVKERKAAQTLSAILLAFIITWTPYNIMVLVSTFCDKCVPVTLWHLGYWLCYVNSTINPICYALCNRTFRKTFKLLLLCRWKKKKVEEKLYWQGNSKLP
As to the kind of experiment: Positive allosteric modulation of rat muscarinic M5 receptor relative to acetylcholine.

In test [2] the target is Muscarinic acetylcholine receptor M3 (Homo sapiens, UniProt P20309). As to the kind of experiment: Positive allosteric modulation of human muscarinic M3 receptor.
Muscarinic acetylcholine receptor M3 (Homo sapiens, UniProt P20309), sequence (P20309 whole entry): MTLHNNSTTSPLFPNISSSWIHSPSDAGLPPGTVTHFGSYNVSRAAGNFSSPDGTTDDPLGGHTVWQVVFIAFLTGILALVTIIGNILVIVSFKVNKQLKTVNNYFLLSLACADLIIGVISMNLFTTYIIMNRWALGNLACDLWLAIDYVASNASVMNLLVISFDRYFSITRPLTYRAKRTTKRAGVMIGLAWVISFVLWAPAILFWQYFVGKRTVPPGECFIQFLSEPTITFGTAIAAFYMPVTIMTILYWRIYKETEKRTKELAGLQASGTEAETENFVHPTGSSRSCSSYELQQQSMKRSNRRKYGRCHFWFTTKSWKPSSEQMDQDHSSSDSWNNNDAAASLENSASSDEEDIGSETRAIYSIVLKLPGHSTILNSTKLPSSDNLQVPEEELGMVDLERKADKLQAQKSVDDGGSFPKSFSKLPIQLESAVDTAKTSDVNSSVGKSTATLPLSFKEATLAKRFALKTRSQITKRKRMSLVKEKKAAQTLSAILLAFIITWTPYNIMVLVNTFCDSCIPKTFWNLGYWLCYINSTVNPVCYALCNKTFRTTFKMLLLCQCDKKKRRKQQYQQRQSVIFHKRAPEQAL
The target in test [3] is T2, Muscarinic acetylcholine receptor M4 (Homo sapiens, UniProt P08173).
T2 sequence (P08173 whole entry): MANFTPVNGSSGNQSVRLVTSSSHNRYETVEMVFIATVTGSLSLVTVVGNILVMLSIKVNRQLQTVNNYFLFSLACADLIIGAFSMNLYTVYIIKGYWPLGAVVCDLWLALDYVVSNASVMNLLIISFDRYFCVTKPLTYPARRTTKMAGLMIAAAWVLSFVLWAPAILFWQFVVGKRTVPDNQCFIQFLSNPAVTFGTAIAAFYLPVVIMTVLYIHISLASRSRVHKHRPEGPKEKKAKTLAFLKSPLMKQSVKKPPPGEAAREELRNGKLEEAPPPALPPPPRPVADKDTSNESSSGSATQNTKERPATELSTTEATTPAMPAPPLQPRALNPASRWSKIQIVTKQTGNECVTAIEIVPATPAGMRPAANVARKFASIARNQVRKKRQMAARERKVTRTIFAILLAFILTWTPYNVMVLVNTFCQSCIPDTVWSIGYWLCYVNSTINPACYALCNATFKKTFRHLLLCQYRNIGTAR
As to the kind of experiment: Positive allosteric modulation of human muscarinic M4 receptor.

Test [4] deals with T3, Muscarinic acetylcholine receptor M2 (Homo sapiens, UniProt P08172).
T3 sequence (P08172 whole entry): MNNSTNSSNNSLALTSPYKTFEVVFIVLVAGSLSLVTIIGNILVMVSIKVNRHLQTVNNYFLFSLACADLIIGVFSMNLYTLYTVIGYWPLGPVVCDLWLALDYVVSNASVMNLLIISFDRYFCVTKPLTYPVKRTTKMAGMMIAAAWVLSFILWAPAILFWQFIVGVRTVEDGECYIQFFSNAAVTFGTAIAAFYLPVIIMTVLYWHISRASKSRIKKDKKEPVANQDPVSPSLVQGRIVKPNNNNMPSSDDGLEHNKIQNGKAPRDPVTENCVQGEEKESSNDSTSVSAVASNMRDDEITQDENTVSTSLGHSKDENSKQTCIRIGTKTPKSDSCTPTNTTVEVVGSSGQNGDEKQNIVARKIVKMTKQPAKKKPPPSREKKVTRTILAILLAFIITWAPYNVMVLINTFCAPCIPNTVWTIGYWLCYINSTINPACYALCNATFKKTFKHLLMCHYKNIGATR
As to the kind of experiment: Positive allosteric modulation of human muscarinic M2 receptor.

In test [5] the target is T4, Muscarinic acetylcholine receptor M1 (Homo sapiens, UniProt P11229).
T4 sequence (P11229 whole entry): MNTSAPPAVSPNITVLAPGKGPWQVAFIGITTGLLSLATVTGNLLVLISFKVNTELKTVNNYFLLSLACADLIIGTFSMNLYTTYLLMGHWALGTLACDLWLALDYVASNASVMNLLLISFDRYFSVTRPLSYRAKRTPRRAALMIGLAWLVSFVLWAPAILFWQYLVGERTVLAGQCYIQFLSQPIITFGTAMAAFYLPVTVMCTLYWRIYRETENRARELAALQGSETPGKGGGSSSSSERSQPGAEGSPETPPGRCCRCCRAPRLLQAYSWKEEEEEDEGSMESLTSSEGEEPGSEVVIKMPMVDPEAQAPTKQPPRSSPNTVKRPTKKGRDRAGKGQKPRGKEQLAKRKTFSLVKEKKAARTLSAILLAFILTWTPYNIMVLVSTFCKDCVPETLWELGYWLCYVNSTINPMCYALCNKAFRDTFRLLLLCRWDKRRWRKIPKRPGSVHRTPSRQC
Description: Positive allosteric modulation of human muscarinic M1 receptor.

The target of test [6] is T5, Muscarinic acetylcholine receptor M5 (Homo sapiens) (UniProt P08912).
T5 sequence (whole entry): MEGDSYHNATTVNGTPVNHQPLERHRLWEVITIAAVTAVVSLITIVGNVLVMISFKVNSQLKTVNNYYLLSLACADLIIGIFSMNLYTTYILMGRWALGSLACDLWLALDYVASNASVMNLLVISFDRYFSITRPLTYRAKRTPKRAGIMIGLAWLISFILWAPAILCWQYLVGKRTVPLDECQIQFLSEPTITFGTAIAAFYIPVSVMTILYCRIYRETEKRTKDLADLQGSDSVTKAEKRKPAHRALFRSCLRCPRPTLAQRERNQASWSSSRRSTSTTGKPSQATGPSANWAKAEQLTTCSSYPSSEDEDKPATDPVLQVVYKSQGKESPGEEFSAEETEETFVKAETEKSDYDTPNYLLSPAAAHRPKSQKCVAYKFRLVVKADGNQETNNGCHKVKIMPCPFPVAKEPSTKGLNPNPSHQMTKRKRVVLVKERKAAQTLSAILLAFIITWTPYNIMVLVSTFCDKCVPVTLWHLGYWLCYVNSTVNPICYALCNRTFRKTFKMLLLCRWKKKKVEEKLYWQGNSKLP
As to the kind of experiment: Positive allosteric modulation of human muscarinic M5 receptor assessed as fold shift of acetylcholine-induced response at 30 uM.

Test [7] deals with T5, Muscarinic acetylcholine receptor M5 (Homo sapiens). Description: Positive allosteric modulation of human muscarinic M5 receptor relative to acetylcholine.
In test [8] the target is T6, Muscarinic acetylcholine receptor M5 (Homo sapiens, UniProt P08912).
T6 sequence (P08912 whole entry): T5 sequence (whole entry)
As to the kind of experiment: Positive allosteric modulation of human muscarinic M5 receptor.

The target of test [9] is T5, Muscarinic acetylcholine receptor M5 (Homo sapiens). As to the kind of experiment: Positive allosteric modulation of human muscarinic M5 receptor at 3 uM relative to acetylcholine.
Test [10] addresses Muscarinic acetylcholine receptor M3 (Rattus norvegicus, UniProt P08483). Description: Positive allosteric modulation of rat muscarinic M3 receptor.
The target in test [11] is T7, Muscarinic acetylcholine receptor M4 (Rattus norvegicus, UniProt P08485).
T7 sequence (P08485 whole entry): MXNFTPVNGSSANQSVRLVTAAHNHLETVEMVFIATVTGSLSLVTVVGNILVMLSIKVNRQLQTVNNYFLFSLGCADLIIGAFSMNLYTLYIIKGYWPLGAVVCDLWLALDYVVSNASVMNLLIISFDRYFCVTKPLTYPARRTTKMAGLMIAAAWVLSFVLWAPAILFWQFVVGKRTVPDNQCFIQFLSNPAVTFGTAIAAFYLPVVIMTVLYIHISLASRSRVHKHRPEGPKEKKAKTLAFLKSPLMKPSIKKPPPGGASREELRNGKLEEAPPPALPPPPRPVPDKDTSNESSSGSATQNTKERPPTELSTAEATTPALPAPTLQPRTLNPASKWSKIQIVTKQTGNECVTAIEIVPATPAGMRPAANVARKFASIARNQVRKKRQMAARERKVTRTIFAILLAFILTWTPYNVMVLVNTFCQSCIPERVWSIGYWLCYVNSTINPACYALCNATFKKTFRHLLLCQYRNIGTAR
As to the kind of experiment: Positive allosteric modulation of rat muscarinic M4 receptor.

Test [12] has as its target T8, Muscarinic acetylcholine receptor M2 (Rattus norvegicus, UniProt P10980).
T8 sequence (P10980 whole entry): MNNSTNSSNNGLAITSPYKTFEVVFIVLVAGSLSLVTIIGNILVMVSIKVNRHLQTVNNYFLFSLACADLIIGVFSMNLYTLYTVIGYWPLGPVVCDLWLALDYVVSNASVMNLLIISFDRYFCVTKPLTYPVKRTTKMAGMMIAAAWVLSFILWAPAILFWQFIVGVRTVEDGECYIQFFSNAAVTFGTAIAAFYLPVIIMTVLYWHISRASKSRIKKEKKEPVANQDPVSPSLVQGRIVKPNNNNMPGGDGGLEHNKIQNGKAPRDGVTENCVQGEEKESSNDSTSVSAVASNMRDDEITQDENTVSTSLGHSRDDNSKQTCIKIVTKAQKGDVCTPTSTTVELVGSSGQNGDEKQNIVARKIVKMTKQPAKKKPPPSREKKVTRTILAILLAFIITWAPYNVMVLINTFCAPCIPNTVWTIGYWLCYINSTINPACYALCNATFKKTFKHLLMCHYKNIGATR
Description: Positive allosteric modulation of rat muscarinic M2 receptor.

The target of test [13] is T9, Muscarinic acetylcholine receptor M1 (Rattus norvegicus, UniProt P08482).
T9 sequence (P08482 whole entry): T4 sequence (P11229 whole entry) with A5V, T254S, P309S, R320K, A337G, I413V
Description: Positive allosteric modulation of rat muscarinic M1 receptor.

Substitutions are numbered along the chain they refer to.

Muscarinic acetylcholine receptor M3 (Rattus norvegicus, UniProt P08483), sequence (P08483 whole entry): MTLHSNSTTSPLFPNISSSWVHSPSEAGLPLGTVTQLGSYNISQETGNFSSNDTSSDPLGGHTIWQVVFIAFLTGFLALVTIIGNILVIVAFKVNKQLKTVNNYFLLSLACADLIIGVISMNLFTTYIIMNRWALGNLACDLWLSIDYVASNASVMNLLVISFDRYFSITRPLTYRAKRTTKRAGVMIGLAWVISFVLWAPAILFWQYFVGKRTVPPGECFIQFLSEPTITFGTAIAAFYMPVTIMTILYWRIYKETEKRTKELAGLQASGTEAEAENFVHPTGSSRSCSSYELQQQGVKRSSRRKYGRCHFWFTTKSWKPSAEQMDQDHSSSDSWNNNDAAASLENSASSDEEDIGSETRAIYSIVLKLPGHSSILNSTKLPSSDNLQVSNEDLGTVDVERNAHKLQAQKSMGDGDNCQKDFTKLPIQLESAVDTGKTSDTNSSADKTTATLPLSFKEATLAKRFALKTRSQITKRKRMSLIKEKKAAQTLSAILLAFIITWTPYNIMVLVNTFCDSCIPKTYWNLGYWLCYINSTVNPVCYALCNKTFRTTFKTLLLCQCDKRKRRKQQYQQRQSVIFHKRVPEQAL

In the case of `COc1ccc(CN2C(=O)C(=O)c3cc(OC(F)(F)F)ccc32)cc1`, the fold change (FC) in test [1] worked out at 20; in test [6], 14. Besides, the EC50 in [2], in test [3], in test [4] and in [5] was over 30 µM in each case.

`COc1ccc(CN2C(=O)C(O)(c3ccc(F)nc3)c3cc(OC(F)(F)F)ccc32)cc1` (stereo not given) had an Emax in test [7] of 74%. This compound displayed an EC50 in [8] of 2.2 µM.

As for `O=C1C(=O)N(Cc2ccc(Oc3cccc(F)n3)cc2)c2ccc(OC(F)(F)F)cc21`, the EC50 in test [2], in test [3], in [4] and in test [5] was over 30 µM each time. The fold change (FC) in test [6] was 6.

On to `O=C1C(=O)N(Cc2ccc(Oc3ccccc3)cc2)c2ccc(OC(F)(F)F)cc21`, for which the EC50 in [2], in test [3], in test [4] and in [5] was over 30 µM each time. Moreover, in test [6], the fold change (FC) worked out at 5.

In [7], `COc1ccc(CN2C(=O)C(O)(C[N+](=O)[O-])c3cc(OC(F)(F)F)ccc32)cc1` (stereo not given) gave an Emax of 75%. Also, in test [8], the EC50 came out at 1.4 µM.

`Cc1cccc2c1N(CCOc1ccccc1)C(=O)C2=O`: the maximal effect (Emax) in test [9] was 31%.

Take `Cc1cccc(OCCN2C(=O)C(=O)c3cc(OC(F)(F)F)ccc32)c1`: the Emax in test [7] came to 91%. Moreover, the EC50 in test [8] came out at 0.53 µM.

Regarding `Cn1cc(-c2ccc(CN3C(=O)C(=O)c4ccccc43)c(F)c2)cn1`, the EC50 in test [2], in test [3] and in [4] was over 30 µM in each case. Besides, in test [7], the Emax came to 45%.

With `COc1ccc(OCCN2C(=O)C(=O)c3cc(OC(F)(F)F)ccc32)cc1`, the Emax in test [7] came to 89%. The compound also showed a concentration for a half-maximal effect (EC50) in test [8] of 0.59 µM.

Consider `O=C1C(=O)N(CCOc2ccc(Oc3ccccc3)cc2)c2ccc(OC(F)(F)F)cc21`, for which the Emax in [7] stood at 93%. The compound also gave an EC50 in [8] of 1.05 µM.

Compound `O=C1C(=O)N(CCOc2ccc(Cl)cc2)c2ccc(OC(F)(F)F)cc21` registered an Emax in [7] of 92%. This compound returned an EC50 in [8] of 0.45 µM.

Consider `O=C1C(=O)N(CCOc2ccccc2)c2ccc(OC(F)(F)F)cc21`, for which the EC50 in test [10], in test [11], in test [12], in test [13], in test [2] and in test [3] was over 30 µM each time. The EC50 in test [4] is over 30 µM; in test [5], over 30 µM; in test [8] it was 0.41 µM. Moreover, the fold change (FC) in test [1] and in [6] was 20 in each case. This compound gave a maximal effect (Emax) in test [7] of 91%.
